{
  "source": "paper PMC9531272",
  "about": "“Xanthine oxidase inhibitory study of eight structurally diverse phenolic compounds” (Frontiers in Nutrition, 2022)",
  "key": {"XO": {"system": "XO", "settings": "cited from earlier work; for IC50: read-out: IC50 against XO"}, "Xanthine oxidase (XO) [1]": {"target": "T1, Xanthine oxidase (XO) (Bos taurus, UniProt P80457)", "T1 construct": "purchased Sigma-Aldrich (Shanghai, P. R. China)", "T1 sequence (P80457 whole entry)": "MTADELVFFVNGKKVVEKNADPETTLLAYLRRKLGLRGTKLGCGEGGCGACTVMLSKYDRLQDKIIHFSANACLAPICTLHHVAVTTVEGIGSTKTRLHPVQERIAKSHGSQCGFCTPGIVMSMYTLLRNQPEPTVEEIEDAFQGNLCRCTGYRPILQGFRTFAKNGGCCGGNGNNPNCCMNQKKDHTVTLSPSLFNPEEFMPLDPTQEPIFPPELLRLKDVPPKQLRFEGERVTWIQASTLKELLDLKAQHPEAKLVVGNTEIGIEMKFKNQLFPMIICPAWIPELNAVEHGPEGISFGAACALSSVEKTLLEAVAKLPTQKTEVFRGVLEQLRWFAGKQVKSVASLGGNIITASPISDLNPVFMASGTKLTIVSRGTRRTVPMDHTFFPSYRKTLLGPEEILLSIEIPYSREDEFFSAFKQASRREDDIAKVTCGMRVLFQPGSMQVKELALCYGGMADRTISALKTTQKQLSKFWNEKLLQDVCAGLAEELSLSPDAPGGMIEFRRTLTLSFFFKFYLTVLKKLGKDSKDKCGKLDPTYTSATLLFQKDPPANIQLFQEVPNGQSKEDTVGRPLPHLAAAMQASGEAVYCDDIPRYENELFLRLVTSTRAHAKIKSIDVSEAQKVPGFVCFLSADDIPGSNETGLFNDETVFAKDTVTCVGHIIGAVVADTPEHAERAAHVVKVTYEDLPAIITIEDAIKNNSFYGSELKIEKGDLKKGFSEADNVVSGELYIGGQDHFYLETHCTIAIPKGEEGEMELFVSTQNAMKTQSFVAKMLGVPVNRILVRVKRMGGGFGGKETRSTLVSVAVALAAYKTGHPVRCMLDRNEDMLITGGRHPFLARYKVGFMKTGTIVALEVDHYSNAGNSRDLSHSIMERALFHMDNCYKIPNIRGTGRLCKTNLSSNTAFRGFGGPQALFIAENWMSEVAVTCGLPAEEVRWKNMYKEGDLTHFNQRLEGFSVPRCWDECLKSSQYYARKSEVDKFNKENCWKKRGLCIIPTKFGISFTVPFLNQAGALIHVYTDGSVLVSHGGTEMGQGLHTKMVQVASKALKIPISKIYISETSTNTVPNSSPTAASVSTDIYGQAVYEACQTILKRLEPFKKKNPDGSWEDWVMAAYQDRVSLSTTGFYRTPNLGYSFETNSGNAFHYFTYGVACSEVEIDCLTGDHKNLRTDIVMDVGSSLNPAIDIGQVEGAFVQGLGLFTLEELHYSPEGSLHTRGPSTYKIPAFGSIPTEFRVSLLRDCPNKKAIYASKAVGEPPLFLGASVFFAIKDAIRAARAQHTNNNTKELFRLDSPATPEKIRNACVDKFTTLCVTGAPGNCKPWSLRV", "experiment": "Determination of inhibition type (Line-weaver Burk plot)", "format": "biochemical", "settings": "Line-weaver Burk plot analysis toward XO"}, "Xanthine oxidase (XO) [2]": {"target": "T1, Xanthine oxidase (XO)", "experiment": "XO inhibitory activity of phenolic compounds (absorbance at 292 nm)", "format": "biochemical", "settings": "XO 0.1 U/ml, 37°C, 15 min preincubation; mean ± SD"}},
  "note": "Read-outs that look alike come from different tables or passages of the source.",
  "data": [
    {"smiles": "Oc1ncnc2[nH]ncc12", "note": "[Allopurinol, allopurinol, reference compound]", "values": [
      {"measurement": "IC50", "setting": "XO; ref Wang et al. ([28])", "value": 6.96, "unit": "µM"}
    ]},
    {"smiles": "O=c1c(O)c(-c2ccc(O)c(O)c2)oc2cc(O)cc(O)c12", "note": "[C1, quercetin]", "values": [
      {"measurement": "Inhibition type", "setting": "Xanthine oxidase (XO) [1]", "value": "Mixed"}
    ]},
    {"smiles": "C[C@@H]1O[C@@H](Oc2c(-c3ccc(O)c(O)c3)oc3cc(O)cc(O)c3c2=O)[C@H](O)[C@H](O)[C@H]1O", "note": "[C2, quercetin-3-rhamnoside]", "values": [
      {"measurement": "IC50", "setting": "Xanthine oxidase (XO) [2]", "value": "12.1 ± 0.65", "unit": "µM"},
      {"measurement": "Inhibition type", "setting": "Xanthine oxidase (XO) [1]", "value": "Competitive"}
    ]},
    {"smiles": "O=C(/C=C/c1ccc(O)c(O)c1)O[C@@H]1[C@H](O)C[C@@](O)(C(=O)O)C[C@H]1OC(=O)/C=C/c1ccc(O)c(O)c1", "note": "[C3, 4,5-O-dicaffeoylquinic acid]", "values": [
      {"measurement": "IC50", "setting": "Xanthine oxidase (XO) [2]", "value": "26.7 ± 1.2", "unit": "µM"},
      {"measurement": "Inhibition type", "setting": "Xanthine oxidase (XO) [1]", "value": "Mixed"}
    ]},
    {"smiles": "O=C(/C=C/c1ccc(O)c(O)c1)O[C@@H]1CC(O)(C(=O)O)C[C@@H](OC(=O)/C=C/c2ccc(O)c(O)c2)C1O", "note": "(some centres unmarked) [C4, 3,5-O-dicaffeoylquinic acid]", "values": [
      {"measurement": "IC50", "setting": "Xanthine oxidase (XO) [2]", "value": "28.9 ± 1.02", "unit": "µM"},
      {"measurement": "Inhibition type", "setting": "Xanthine oxidase (XO) [1]", "value": "Competitive"}
    ]},
    {"smiles": "O=C(/C=C/c1ccc(O)c(O)c1)O[C@H]1[C@H](O)C[C@](O)(C(=O)O)C[C@H]1OC(=O)/C=C/c1ccc(O)c(O)c1", "note": "[C5, 3,4-O-di-caffeoylquinic acid]", "values": [
      {"measurement": "IC50", "setting": "Xanthine oxidase (XO) [2]", "value": "44.6 ± 1.65", "unit": "µM"},
      {"measurement": "Inhibition type", "setting": "Xanthine oxidase (XO) [1]", "value": "Competitive"}
    ]},
    {"smiles": "O=C(/C=C/c1ccc(O)c(O)c1)O[C@H]1[C@H](O)C[C@](O)(C(=O)O)C[C@H]1O", "note": "[C6, 4-O-caffeoylquinic acid]", "values": [
      {"measurement": "IC50", "setting": "Xanthine oxidase (XO) [2]", "value": "70.2 ± 2.25", "unit": "µM"},
      {"measurement": "Inhibition type", "setting": "Xanthine oxidase (XO) [1]", "value": "Competitive"}
    ]},
    {"smiles": "O=C(/C=C/c1ccc(O)c(O)c1)O[C@@H]1C[C@](O)(C(=O)O)C[C@@H](O)[C@H]1O", "note": "[C7, 3-O-caffeoylquinic acid]", "values": [
      {"measurement": "IC50", "setting": "Xanthine oxidase (XO) [2]", "value": "80.9 ± 3.06", "unit": "µM"},
      {"measurement": "Inhibition type", "setting": "Xanthine oxidase (XO) [1]", "value": "Competitive"}
    ]},
    {"smiles": "O=C(O)/C=C/c1ccc(O)c(O)c1", "note": "[C8, caffeic acid]", "values": [
      {"measurement": "XO inhibition", "setting": "XO; at 125 μM concentration, ref Song et al. ([29])", "value": "5.74 ± 2.64", "unit": "%"},
      {"measurement": "IC50", "setting": "XO; ref Chan et al. ([31])", "value": "> 50", "unit": "µM"},
      {"measurement": "IC50", "setting": "XO; ref Nguyen et al. ([33])", "value": 85.3, "unit": "µM"},
      {"measurement": "IC50", "setting": "XO; ref Wang et al. ([28])", "value": 53.5, "unit": "µM"},
      {"measurement": "IC50", "setting": "XO; ref Wang et al. ([30])", "value": "65.6 ± 2.71", "unit": "µM"},
      {"measurement": "IC50", "setting": "Xanthine oxidase (XO) [2]", "value": "95.6 ± 3.28", "unit": "µM"}
    ]}
  ]
}
